In paper PMC4786259 (PLoS ONE, 2016):

Experiments:
[1] = tested on: C57BL/6J mice; experiment: Prepulse inhibition, PCP-disrupted; assay type: in vivo
[2] = biological target: α2A (Homo sapiens, UniProt P08913); experiment: PDSP radioligand competition binding; conditions: radioligand [^3H]Rauwolscine; read-out: In vitro Affinity
[3] = tested on: male B6129 hybrid mice; experiment: Clozapine drug discrimination (substitution); assay type: in vivo
Experimental: Adult male B6129 hybrid mice (n = 12) were trained to respond under a FR10 schedule and were reinforced by presentation of sweetened milk as described previously. The drug and vehicle lever positions were counterbalanced between groups to control for olfactory cues. All injections were given subcutaneously with a pre-session injection time of 30 minutes. Training occurred on a double alternation injection schedule with two days of VEH followed by two days of CLZ and repeated (VEH, VEH, CLZ, CLZ, VEH, VEH etc.). In order for a mouse to pass a training day it had to meet three criteria: (1) complete the first fixed ratio (FR) on the condition-appropriate lever, (2) at least 80% of the total responses were made on the condition-appropriate lever, and (3) at least 10 responses per minute were made during the session. Drug testing was conducted approximately two times per week with at least two training days in between. To be eligible for testing, mice were required to pass both a drug and vehicle training day consecutively. […] Responses on both levers were reinforced.
A p<0.05 was considered significant.

[4] = biological target: D5 (Homo sapiens, UniProt P21918); experiment: PDSP receptor functional assay; assay type: cell-based
D5, sequence (P21918 whole entry, looked up): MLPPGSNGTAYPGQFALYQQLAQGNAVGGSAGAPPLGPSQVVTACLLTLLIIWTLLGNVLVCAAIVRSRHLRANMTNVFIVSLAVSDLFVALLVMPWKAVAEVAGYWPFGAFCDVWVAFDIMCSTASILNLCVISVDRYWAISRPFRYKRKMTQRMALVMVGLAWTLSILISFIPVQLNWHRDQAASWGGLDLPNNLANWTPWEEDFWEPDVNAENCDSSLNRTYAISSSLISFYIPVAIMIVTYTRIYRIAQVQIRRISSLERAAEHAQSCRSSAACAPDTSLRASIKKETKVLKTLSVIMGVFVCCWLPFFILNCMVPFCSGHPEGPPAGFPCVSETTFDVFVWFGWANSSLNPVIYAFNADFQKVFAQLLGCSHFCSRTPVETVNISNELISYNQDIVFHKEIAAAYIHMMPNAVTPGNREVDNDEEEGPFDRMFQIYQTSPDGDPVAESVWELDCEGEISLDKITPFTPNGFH

[5] = biological target: MOR (Homo sapiens, UniProt P35372); experiment: PDSP radioligand competition binding; conditions: radioligand [^3H]DAMGO; read-out: In vitro Affinity
MOR, sequence (P35372 whole entry): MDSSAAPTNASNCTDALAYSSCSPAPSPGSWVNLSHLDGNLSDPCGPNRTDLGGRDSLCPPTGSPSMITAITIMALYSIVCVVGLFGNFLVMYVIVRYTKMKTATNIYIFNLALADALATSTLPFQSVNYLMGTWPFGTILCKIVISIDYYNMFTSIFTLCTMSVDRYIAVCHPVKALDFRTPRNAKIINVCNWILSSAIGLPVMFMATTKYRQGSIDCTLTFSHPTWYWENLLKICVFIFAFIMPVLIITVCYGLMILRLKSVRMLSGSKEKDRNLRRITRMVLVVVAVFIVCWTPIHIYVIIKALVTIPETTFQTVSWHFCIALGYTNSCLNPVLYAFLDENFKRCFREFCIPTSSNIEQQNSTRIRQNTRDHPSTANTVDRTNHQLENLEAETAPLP

[6] = tested on: male C57BL/6J mice; experiment: AMPH-induced hyperlocomotor activity (open field); assay type: in vivo; conditions: 3 mg/kg pre-treatment, 3 mg/kg AMPH; between 35–50 min, vs amphetamine alone
Experimental: Locomotor activity was assessed in AccuScan activity monitors (41X41X30 cm; AccuScan Instruments, Columbus, OH) with photocells spaced at 1.52 cm as described. In these monitors, the photocells create a grid of light beams, and breaks in the light beams (caused by the mouse) are recorded. The Accuscan software then calculates the total distance travelled (amongst other measurements) by analyzing the sequential order of beam breaks in the grid. Horizontal activity was measured as the total distance traveled in centimeters and was recorded in 5-minute bins. PCP-induced hyperlocomotor activity: mice (n = 16) previously acclimated to activity chambers were placed into the chambers for 15 minutes. […] Subsequently, mice were injected with 6.0 mg/kg PCP (i.p.) and returned to the chamber for 90 minutes. Induction of AMPH-induced hyperlocomotor activity followed an identical protocol except locomotor activity was recorded for a total of 75 minutes and 3 mg/kg AMPH was used (i.p.).

[7] = biological target: 5-HT5A (Homo sapiens, UniProt P47898); experiment: PDSP radioligand competition binding; conditions: radioligand [^3H]LSD; read-out: In vitro Affinity
5-HT5A, sequence (P47898 whole entry, species assumed): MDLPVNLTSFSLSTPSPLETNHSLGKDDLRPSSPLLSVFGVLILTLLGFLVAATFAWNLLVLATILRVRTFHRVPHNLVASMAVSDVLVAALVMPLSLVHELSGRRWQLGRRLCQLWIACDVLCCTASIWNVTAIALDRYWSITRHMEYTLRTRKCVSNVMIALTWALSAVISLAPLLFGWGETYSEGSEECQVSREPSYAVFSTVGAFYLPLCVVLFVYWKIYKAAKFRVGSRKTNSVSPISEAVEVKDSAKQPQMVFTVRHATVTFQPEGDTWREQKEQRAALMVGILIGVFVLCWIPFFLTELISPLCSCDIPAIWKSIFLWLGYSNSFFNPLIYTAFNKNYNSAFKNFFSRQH

[8] = biological target: T1, 5-HT7 (Homo sapiens, UniProt P34969); experiment: PDSP radioligand competition binding; conditions: radioligand [^3H]LSD; read-out: In Vitro Affinity
T1 construct: expressed in transfected cells
T1 sequence (P34969 whole entry, species assumed): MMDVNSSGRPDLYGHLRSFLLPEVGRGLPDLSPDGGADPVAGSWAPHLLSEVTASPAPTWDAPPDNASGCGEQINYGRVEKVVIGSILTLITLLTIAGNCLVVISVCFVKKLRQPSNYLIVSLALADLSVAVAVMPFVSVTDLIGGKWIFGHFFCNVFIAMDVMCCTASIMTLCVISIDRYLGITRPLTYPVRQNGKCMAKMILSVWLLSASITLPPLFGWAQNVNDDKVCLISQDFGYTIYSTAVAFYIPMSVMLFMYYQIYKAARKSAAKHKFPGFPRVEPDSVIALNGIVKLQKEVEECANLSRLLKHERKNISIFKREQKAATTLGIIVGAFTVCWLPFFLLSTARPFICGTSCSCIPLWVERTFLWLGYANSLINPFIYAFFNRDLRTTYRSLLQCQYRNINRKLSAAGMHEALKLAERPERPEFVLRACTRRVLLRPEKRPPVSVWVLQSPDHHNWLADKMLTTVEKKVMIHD

[9] = Dynamic light scattering to test for colloidal aggregation; assay type: physicochemical
Experimental: Measurements were made at room temperature using a DynaPro MS/X (Wyatt Technology) with a 55 mW laser at 826.6 nm. The laser power was 100%, and the detector angle was 90° with samples run in duplicate.

α2A, sequence (P08913 whole entry): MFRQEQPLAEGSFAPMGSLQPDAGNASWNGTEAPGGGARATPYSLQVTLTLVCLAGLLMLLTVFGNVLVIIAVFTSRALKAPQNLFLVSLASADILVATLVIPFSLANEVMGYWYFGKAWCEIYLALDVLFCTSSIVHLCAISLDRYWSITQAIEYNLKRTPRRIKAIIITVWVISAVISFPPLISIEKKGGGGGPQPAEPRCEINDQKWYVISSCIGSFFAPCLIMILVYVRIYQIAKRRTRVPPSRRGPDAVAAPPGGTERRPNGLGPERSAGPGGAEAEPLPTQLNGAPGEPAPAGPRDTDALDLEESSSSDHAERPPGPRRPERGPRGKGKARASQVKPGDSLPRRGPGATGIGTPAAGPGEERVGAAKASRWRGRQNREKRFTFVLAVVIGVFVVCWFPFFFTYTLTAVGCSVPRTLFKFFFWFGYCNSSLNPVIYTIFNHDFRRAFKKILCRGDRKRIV

In the case of `COc1cc2c3c(c1OC)-c1ccccc1C[C@H]3N(C)CC2` [nuciferine], the “PCP-disrupted PPI” value ([1]; 5 mg/kg i.p. before 6 mg/kg PCP) is reported as “higher PPI than the PCP-vehicle groups”, the “PCP-disrupted PPI” value ([1]; 10 mg/kg i.p. before 6 mg/kg PCP) is reported as “rescued the PCP-disrupted PPI” and the Ki [2] is reported as 1150 nM. For the same molecule, the drug lever responding ([3]; 10.0 mg/kg s.c., animals trained on 1.25 mg/kg clozapine) was 80.63%, the ED50 ([3]; Mus musculus, sc, 95% CI 3.09–9.48 mg/kg) was 5.42 mg/kg and the “substitution for clozapine's discriminative cue” value ([3]; lower doses 0.1 mg/kg–3.0 mg/kg) was “failed to produce substitution”. For the same molecule, the EC50 [4] was 2600 nM, the “Function Type” value [4] was “Partial agonist” and the Emax ([4]; partial agonist efficacy, read-out: maximal response) was 50%. The Ki [5] was 9550 nM, the amphetamine induced hyperlocomotion [6] was “significantly higher motor activity” and the Ki [7] was 1110 nM. For the same molecule, the Ki [8] was 49.8 nM, the “light scattering above background” value ([9]; <= 10 μM, aqueous buffer) was “did not scatter light above background” and the colloidal aggregate formation ([9]; concentrations up to 10 μM) was “does not form aggregates”.
